In patent publication US11738022B2, “Methods for inducing pupil dilation” (THE REGENTS OF THE UNIVERSITY OF COLORADO, A BODY CORPORATE, priority 2017, dated 2023):
Counter-ions that a name gives are not always drawn.

Key:
pupil = test: Pupil dilation measured with Neuroptics pupillometer after α-2 agonist pre-treatment and/or phenylephrine; assay type: in vivo, human; details: for Pupil size, Treated eye / Surgical Work area, Treated eye / Pupil size, Non-treated eye / Surgical Work area, Non-treated eye: photopic conditions (1258.925 lux) after dilation with phenylephrine 10%; for Pupil size, Non-treated eye / Surgical Work area, Non-treated eye: eye without pre-treatment
Protocol: Dilation medication used was Phenylephrine hydrochloride 10% (Akorn, Inc). Pupillometer used was a Neuroptics DP-2000 Binocular Pupillometer).
Dilation using phenylephrine hydrochloride 10% was conducted in both eyes of the test subject to use as a control against the other compounds being tested.
After this, dilation using phenylephrine hydrochloride 2.5% or phenylephrine hydrochloride 10% was conducted to investigate the effects of the compound on pupil dilation.
Apracionidine 0.5% was administered in the right eye of the test subject three (3) times a day for 4 days. After this, dilation using phenylephrine hydrochloride 10% was conducted to investigate the effects of the compound on pupil dilation.
After this, dilation using phenylephrine hydrochloride 10% was conducted to investigate the effects of the compound on pupil dilation.
A washout period of multiple months was undertaken in between each experiment.
Pupil measurements were obtained using a Neuroptics pupillometer. Parameters were as follows: Scotopic conditions for 1 second, followed by photopic conditions for 4 seconds (1258.925 lux), followed by scotopic conditions for 10 seconds. This allowed for investigation of scotopic pupil size, photopic pupil size, and scotopic pupil size recovery after the light stimulus concluded.
The pupils of the subject's pretreated right eye and untreated control left eye were then measured under both scotopic and photopic conditions for baseline measurements (FIG. 6A). Photopic conditions consisted of a 4 second window where a light was shining in both eyes simultaneously. […]
The experiment was repeated at a higher dosage wherein the subject was administered a second ophthalmic formulation containing 10% phenylephrine to both eyes. 30 minutes after instillation of 10% phenylephrine, the pupils of the subject were then measured under both scotopic and photopic conditions (FIG. 6C). […] Because the area of a circle is dependent on the radius squared (area of a circle=πr^2), the increase in area that is created from a increasing the pupil dilation size is not linear.
The results were then compared.

α receptors (α2:α1) = details: affinity ratio; cited from earlier work
[1] = after pre-treatment of right eye only, 3 times a day for 4 days, before phenylephrine
[2] = after pre-treatment of right eye only, 3 times a day for 4 days, before phenylephrine, left eye not treated
[3] = dilation pre and post treatment with α 2 agonist: treated eye vs control measurements of same eye
[4] = non-treated eye dilation compared to treated eye dilation
[5] = right eye pre-treated 3 times a day for 4 days, then phenylephrine 10% both eyes
[6] = right eye pre-treated 3 times a day for 4 days, then phenylephrine 10% both eyes, left eye not pre-treated
[7] = phenylephrine hydrochloride 10% both eyes, no pre-treatment (FIG. 5B)

SMILES: Nc1cc(Cl)c(N=C2NCCN2)c(Cl)c1 [Apraclonidine, apraclonidine]
- effect of pre-treatment on dilation (pupil; after dilation with phenylephrine hydrochloride 10%): hindered dilation
- CH LStim Ave (pupil; [1]): 62%
- CH RPupil Ave (pupil; [1]): 61%
- CH RStim Ave (pupil; [1]): 62%
- CH Right (pupil; [1]): 61%
- CLAT LStim Ave (pupil; [1]): 0.21 s
- CLAT RPupil Ave (pupil; [1]): 0.21 s
- CLAT RStim Ave (pupil; [1]): 0.21 s
- CLAT Right (pupil; [1]): 0.21 s
- DELTA LStim Ave (pupil; [1]): 4.25 mm
- DELTA RPupil Ave (pupil; [1]): 4.20 mm
- DELTA RStim Ave (pupil; [1]): 4.25 mm
- DV LStim Ave (pupil; [1]): 1.08 mm/s
- DV RPupil Ave (pupil; [1]): 1.19 mm/s
- DV RStim Ave (pupil; [1]): 1.08 mm/s
- DV Right (pupil; [1]): 1.19 mm/s
- MCV LStim Ave (pupil; [1]): 5.93 mm/s
- MCV RPupil Ave (pupil; [1]): 6.01 mm/s
- MCV RStim Ave (pupil; [1]): 5.93 mm/s
- Max LStim Ave (pupil; [1]): 6.87 mm
- Max RStim Ave (pupil; [1]): 6.87 mm
- Max Right (pupil; [1]): 6.91 mm
- Min LStim Ave (pupil; [1]): 2.62 mm
- Min RPupil Ave (pupil; [1]): 2.71 mm
- Min RStim Ave (pupil; [1]): 2.62 mm
- Min Right (pupil; [1]): 2.71 mm
- CH LPupil Ave (pupil; [2]): 63%
- CH Left (pupil; [2]): 63%
- CLAT LPupil Ave (pupil; [2]): 0.21 s
- CLAT Left (pupil; [2]): 0.21 s
- DELTA Left (pupil; [2]): 4.28 mm
- DV Left (pupil; [2]): 0.97 mm/s
- MCV Left (pupil; [2]): 5.85 mm/s
- Max Left (pupil; [2]): 6.82 mm
- Min Left (pupil; [2]): 2.54 mm
- Pupil size change (%) (pupil; [3]): −17.83%
- Surgical work area change (%) (pupil; [3]): −32.48%
- Pupil size change (%) (pupil; [4]): −40.4%
- Surgical work area (%) (pupil; [4]): −64.48%
- Pupil size, Treated eye (pupil): 2.95 mm
- Surgical Work area, Treated eye (pupil): 6.831 mm^2
- Pupil size, Non-treated eye (pupil): 4.95 mm
- Surgical Work area, Non-treated eye (pupil): 19.23 mm^2
- CH LStim Ave (pupil; [5]): 54%
- CH RPupil Ave (pupil; [5]): 62%
- CH RStim Ave (pupil; [5]): 54%
- CH Right (pupil; [5]): 62%
- CLAT LStim Ave (pupil; [5]): 0.22 s
- CLAT RPupil Ave (pupil; [5]): 0.21 s
- CLAT RStim Ave (pupil; [5]): 0.22 s
- CLAT Right (pupil; [5]): 0.21 s
- DELTA LStim Ave (pupil; [5]): 4.59 mm
- DELTA RPupil Ave (pupil; [5]): 4.88 mm
- DELTA RStim Ave (pupil; [5]): 4.59 mm
- DV LStim Ave (pupil; [5]): 1.21 mm/s
- DV RPupil Ave (pupil; [5]): 1.18 mm/s
- DV RStim Ave (pupil; [5]): 1.21 mm/s
- DV Right (pupil; [5]): 1.18 mm/s
- MCV LStim Ave (pupil; [5]): 3.80 mm/s
- MCV RPupil Ave (pupil; [5]): 5.03 mm/s
- MCV RStim Ave (pupil; [5]): 3.80 mm/s
- Max LStim Ave (pupil; [5]): 8.54 mm
- Max RStim Ave (pupil; [5]): 8.54 mm
- Max Right (pupil; [5]): 7.83 mm
- Min LStim Ave (pupil; [5]): 3.95 mm
- Min RPupil Ave (pupil; [5]): 2.95 mm
- Min RStim Ave (pupil; [5]): 3.95 mm
- Min Right (pupil; [5]): 2.95 mm
- CH LPupil Ave (pupil; [6]): 46%
- CH Left (pupil; [6]): 46%
- CLAT LPupil Ave (pupil; [6]): 0.23 s
- CLAT Left (pupil; [6]): 0.23 s
- DELTA Left (pupil; [6]): 4.30 mm
- DV Left (pupil; [6]): 1.24 mm/s
- MCV Left (pupil; [6]): 2.58 mm/s
- Max Left (pupil; [6]): 9.25 mm
- Min Left (pupil; [6]): 4.95 mm
- α2:α1 affinity (α receptors (α2:α1)): 150

SMILES: CNC[C@H](O)c1cccc(O)c1 [Phenylephrine hydrochloride 10%, phenylephrine]
- CH LPupil Ave (pupil; [7]): 58%
- CH LStim Ave (pupil; [7]): 57%
- CH Left (pupil; [7]): 58%
- CH RPupil Ave (pupil; [7]): 56%
- CH RStim Ave (pupil; [7]): 57%
- CH Right (pupil; [7]): 56%
- CLAT LPupil Ave (pupil; [7]): 0.24 s
- CLAT LStim Ave (pupil; [7]): 0.22 s
- CLAT Left (pupil; [7]): 0.24 s
- CLAT RPupil Ave (pupil; [7]): 0.20 s
- CLAT RStim Ave (pupil; [7]): 0.22 s
- CLAT Right (pupil; [7]): 0.20 s
- DELTA LStim Ave (pupil; [7]): 4.63 mm
- DELTA Left (pupil; [7]): 4.65 mm
- DELTA RPupil Ave (pupil; [7]): 4.62 mm
- DELTA RStim Ave (pupil; [7]): 4.63 mm
- DV LStim Ave (pupil; [7]): 1.43 mm/s
- DV Left (pupil; [7]): 1.40 mm/s
- DV RPupil Ave (pupil; [7]): 1.45 mm/s
- DV RStim Ave (pupil; [7]): 1.43 mm/s
- DV Right (pupil; [7]): 1.45 mm/s
- MCV LStim Ave (pupil; [7]): 4.62 mm/s
- MCV Left (pupil; [7]): 4.78 mm/s
- MCV RPupil Ave (pupil; [7]): 4.46 mm/s
- MCV RStim Ave (pupil; [7]): 4.62 mm/s
- Max LStim Ave (pupil; [7]): 8.11 mm
- Max Left (pupil; [7]): 8.01 mm
- Max RStim Ave (pupil; [7]): 8.11 mm
- Max Right (pupil; [7]): 8.21 mm
- Min LStim Ave (pupil; [7]): 3.48 mm
- Min Left (pupil; [7]): 3.36 mm
- Min RPupil Ave (pupil; [7]): 3.59 mm
- Min RStim Ave (pupil; [7]): 3.48 mm
- Min Right (pupil; [7]): 3.59 mm
- Pupil size, Treated eye (pupil): 3.59 mm
- Surgical Work area, Treated eye (pupil): 10.12 mm^2
- Pupil size, Non-treated eye (pupil): 3.36 mm
- Surgical Work area, Non-treated eye (pupil): 8.862 mm^2
